# Experimental data reported in patent US20250179059A1 (The Regents of the University of California, priority 2021, published 2025).
# Assays:
# [1] = target: T1, human BRD4 bromodomain II (Homo sapiens, UniProt O60885); experiment: Bromodomain binding assay (AlphaScreen), BRD4 BDII; details: AlphaScreen assay, Table C2; read-out: BRD4 BDII IC50
# T1 construct: human BRD4 bromodomain II [based on Genbank NM_058243, residues 349-460]; host or cells: E. coli
# Summary of the method: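 AlphaScreen competition: His6-BRD4 BDI (aa 44-170) or BDII (aa 349-460) vs biotin-H4(1-21) K5/K8/K12/K16Ac peptide; Ni-chelate acceptor/streptavidin donor beads. HEPES pH 7.5, NaCl, CHAPS, BSA, 1% DMSO; RT. 10-pt 3-fold titration, % peptide binding fitted → IC50.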
# [2] = system: human SKM-1 acute myeloid leukemia cells; experiment: SKM-1 antiproliferation cell-based assay (ATPlite); details: Homo sapiens, SKM-1, 96 h, SKM-1 antiproliferation assay, 4 days, Table C2
# Summary of the method: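 Log-phase cells in RPMI 1640/15% FBS were seeded at 34722 cells/mL and exposed for 4 days to nine-concentration DMSO serial dilutions in triplicate. Viability was read as ATP luminescence (ATPlite 1step), and IC50 values came from variable-slope non-linear regression.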
SMILES,IC50 [1],GI50 [2]
"Cn1ccn(-c2ccc(-c3cc(F)cc(-c4ccnc(N5CCNCC5=O)c4)c3O)cc2Cl)c1=O [Example 463, 1-(4-(3′-chloro-5-fluoro-2-hydroxy-4′-(3-methyl-2-oxo-2,3-dihydro-1H-imidazol-1-yl)-[1,1′-biphenyl]-3-yl)pyridin-2-yl)piperazin-2-one]",0.01 to 1 nM,30 to 300 nM
"CN1CCN(c2cncc(-c3cc(F)cc(-c4ccc(-n5ccn(C)c5=O)c(Cl)c4)c3O)c2)CC1 [Example 465, 1-(3-chloro-5′-fluoro-2′-hydroxy-3′-(5-(4-methylpiperazin-1-yl)pyridin-3-yl)-[1,1′-biphenyl]-4-yl)-3-methyl-1H-imidazol-2(3H)-one]",0.01 to 1 nM,0.3 to 30 nM
"C[C@@H]1CN(c2cncc(-c3cc(F)cc(-c4ccc(-n5ccn(C)c5=O)c(Cl)c4)c3O)c2)CCN1 [Example 467, (R)-1-(3-chloro-5′-fluoro-2′-hydroxy-3′-(5-(3-methylpiperazin-1-yl)pyridin-3-yl)-[1,1′-biphenyl]-4-yl)-3-methyl-1H-imidazol-2(3H)-one]",0.01 to 1 nM,0.3 to 30 nM
"O=c1n(-c2ccc(-c3cc(F)cc(-c4ccnc(N5CCNCC5)c4)c3O)cc2Cl)ccn1C(F)F [Example 468, 1-(3-chloro-5′-fluoro-2′-hydroxy-3′-(2-(piperazin-1-yl)pyridin-4-yl)-[1,1′-biphenyl]-4-yl)-3-(difluoromethyl)-1H-imidazol-2(3H)-one]",1 to 10 nM,300 to 3000 nM
"CCN1CCN(c2cc(-c3cc(F)cc(-c4ccc(-n5ccn(C)c5=O)c(Cl)c4)c3O)ccn2)CC1 [Example 469, 1-(3-chloro-3′-(2-(4-ethylpiperazin-1-yl)pyridin-4-yl)-5′-fluoro-2′-hydroxy-[1,1′-biphenyl]-4-yl)-^3-methyl-1H-imidazol-2(3H)-one]",0.01 to 1 nM,0.3 to 30 nM
"Cn1ccn(-c2ccc(-c3cc(F)cc(-c4ccnc(N5CCN(CC6CC6)CC5)c4)c3O)cc2Cl)c1=O [Example 470, 1-(3-chloro-3′-(2-(4-(cyclopropylmethyl)piperazin-1-yl)pyridin-4-yl)-5′-fluoro-2′-hydroxy-[1,1′-biphenyl]-4-yl)-3-methyl-1H-imidazol-2(3H)-one]",1 to 10 nM,0.3 to 30 nM
"C[C@@H]1CN(c2cncc(-c3cc(F)cc(-c4ccc(-n5ccn(C)c5=O)c(Cl)c4)c3O)c2)CCN1C [Example 474, (R)-1-(3-chloro-3′-(5-(3,4-dimethylpiperazin-1-yl)pyridin-3-yl)-5′-fluoro-2′-hydroxy-[1,1′-biphenyl]-4-yl)-3-methyl-1H-imidazol-2(3H)-one]",0.01 to 1 nM,0.3 to 30 nM
"CN1CCN(c2ccc(-c3cc(F)cc(-c4ccc(=O)n(C5CCNCC5)c4)c3O)cc2Cl)C1=O [Example 477, 5-(3′-chloro-5-fluoro-2-hydroxy-4′-(3-methyl-2-oxoimidazolidin-1-yl)-[1,1′-biphenyl]-3-yl)-1-(piperidin-4-yl)pyridin-2(1H)-one]",1 to 10 nM,30 to 300 nM
"Cn1ccn(-c2ccc(-c3cc(F)cc(-c4ccnc(-c5cccnc5)c4)c3O)cc2Cl)c1=O [Example 480, 1−(3′-([2,3′-bipyridin]-4-yl)-3-chloro-5′-fluoro-2′-hydroxy-[1,1′-biphenyl]-4-yl)-3-methyl-1H-imidazol-2(3H)-one]",1 to 10 nM,300 to 3000 nM
"Cn1ccn(-c2ccc(-c3cc(F)cc(-c4ccc(=O)n(C5CCNCC5)c4)c3O)cc2Cl)c1=O [Example 486, 5-(3′-chloro-5-fluoro-2-hydroxy-4′-(3-methyl-2-oxo-2,3-dihydro-1H-imidazol-1-yl)-[1,1′-biphenyl]-3-yl)-1-(piperidin-4-yl)pyridin-2(1H)-one]",1 to 10 nM,30 to 300 nM
"CN1CC2(C1)CN(c1cncc(-c3cc(F)cc(-c4ccc(-n5ccn(C)c5=O)c(Cl)c4)c3O)c1)C2 [Example 488, 1-(3-chloro-5′-fluoro-2′-hydroxy-3′-(5-(6-methyl-2,6-diazaspiro[3.3]heptan-2-yl)pyridin-3-yl)-[1,1′-biphenyl]-4-yl)-3-methyl-1H-imidazol-2(3H)-one]",1 to 10 nM,0.3 to 30 nM

# Other lines, results leading:
IC50 [1],GI50 [2],SMILES
0.01 to 1 nM,30 to 300 nM,"[2H]C([2H])([2H])n1ccn(-c2ccc(-c3cc(F)cc(-c4ccnc(N5CCNCC5=O)c4)c3O)cc2Cl)c1=O [Example 464, 1-(4-(3′-chloro-5-fluoro-2-hydroxy-4′-(3-deuteromethyl-2-oxo-2,3-dihydro-1H-imidazol-1-yl)-[1,1′-biphenyl]-3-yl)pyridin-2-yl)piperazin-2-one]"
0.01 to 1 nM,0.3 to 30 nM,"[2H]C([2H])([2H])n1ccn(-c2ccc(-c3cc(F)cc(-c4ccnc(N5CC[C@H](NC)C5)c4)c3O)cc2Cl)c1=O [Example 466, (S)-1-(3-chloro-5′-fluoro-2′-hydroxy-3′-(2-(3-(methylamino)pyrrolidin-1-yl)pyridin-4-yl)-[1,1′-biphenyl]-4-yl)-3-(deuteromethyl)-1H-imidazol-2(3H)-one]"
0.01 to 1 nM,0.3 to 30 nM,"Cn1ccn(-c2ccc(-c3cc(F)cc(-c4ccnc(N5CCN(CCO)CC5)c4)c3O)cc2Cl)c1=O [Example 471, 1-(3-chloro-5′-fluoro-2′-hydroxy-3′-(2-(4-(2-hydroxyethyl)piperazin-1-yl)pyridin-4-yl)-[1,1′-biphenyl]-4-yl)-3-methyl-1H-imidazol-2(3H)-one]"
1 to 10 nM,0.3 to 30 nM,"Cn1ccn(-c2ccc(-c3cc(F)cc(-c4cncc(N5CCNCC5)c4)c3O)cc2Cl)c1=O [Example 472, 1-(3-chloro-5′-fluoro-2′-hydroxy-3′-(5-(piperazin-1-yl)pyridin-3-yl)-[1,1′-biphenyl]-4-yl)-^3-methyl-1H-imidazol-2(3H)-one]"
1 to 10 nM,0.3 to 30 nM,"O=c1sccn1-c1ccc(-c2cc(F)cc(-c3ccnc(N4CCNCC4)c3)c2O)cc1Cl [Example 473, 3-(3-chloro-5′-fluoro-2′-hydroxy-3′-(2-(piperazin-1-yl)pyridin-4-yl)-[1,1′-biphenyl]-4-yl)thiazol-2(3H)-one]"
0.01 to 1 nM,0.3 to 30 nM,"CN(C)[C@H]1CCN(c2cncc(-c3cc(F)cc(-c4ccc(-n5ccn(C)c5=O)c(Cl)c4)c3O)c2)C1 [Example 475, (S)-1-(3-chloro-3′-(5-(3-(dimethylamino)pyrrolidin-1-yl)pyridin-3-yl)-5′-fluoro-2′-hydroxy-[1,1′-biphenyl]-4-yl)-3-methyl-1H-imidazol-2(3H)-one]"
0.01 to 1 nM,0.3 to 30 nM,"CN[C@H]1CCN(c2cncc(-c3cc(F)cc(-c4ccc(-n5ccn(C)c5=O)c(Cl)c4)c3O)c2)C1 [Example 476, (S)-1-(3-chloro-5′-fluoro-2′-hydroxy-3′-(5-(3-(methylamino)pyrrolidin-1-yl)pyridin-3-yl)-[1,1′-biphenyl]-4-yl)-3-methyl-1H-imidazol-2(3H)-one]"
0.01 to 1 nM,0.3 to 30 nM,"CN[C@H]1CCCN(c2cncc(-c3cc(F)cc(-c4ccc(-n5ccn(C)c5=O)c(Cl)c4)c3O)c2)C1 [Example 478, (S)-1-(3-chloro-5′-fluoro-2′-hydroxy-3′-(5-(3-(methylamino)piperidin-1-yl)pyridin-3-yl)-[1,1′-biphenyl]-4-yl)-3-methyl-1H-imidazol-2(3H)-one]"
1 to 10 nM,0.3 to 30 nM,"Cn1ccn(-c2ccc(-c3cc(F)cc(-c4cc(N5CCNCC5)c5cc[nH]c5c4)c3O)cc2Cl)c1=O [Example 479, 1-(3-chloro-5′-fluoro-2′-hydroxy-3′-(4-(piperazin-1-yl)-1H-indol-6-yl)-[1,1′-biphenyl]-4-yl)-3-methyl-1H-imidazol-2(3H)-one]"
1 to 10 nM,300 to 3000 nM,"Cn1ccn(-c2ccc(-c3cc(F)cc(-c4ccnc(-c5ccncc5)c4)c3O)cc2Cl)c1=O [Example 481, 1-(3′-([2,4′-bipyridin]-4-yl)-3-chloro-5′-fluoro-2′-hydroxy-[1,1′-biphenyl]-4-yl)-3-methyl-1H-imidazol-2(3H)-one]"
0.01 to 1 nM,0.3 to 30 nM,"[2H]C([2H])([2H])n1ccn(-c2ccc(-c3cc(F)cc(-c4ccnc(N5CCNC[C@@H]5C)c4)c3O)cc2Cl)c1=O [Example 482, (S)-1-(3-chloro-5′-fluoro-2′-hydroxy-3′-(2-(2-methylpiperazin-1-yl)pyridin-4-yl)-[1,1′-biphenyl]-4-yl)-3-deuteromethyl-1H-imidazol-2(3H)-one]"
> 100 nM,≥ 3000 nM,"CN1CCN(c2ccc(-c3cc(F)cc(-c4ccnc(N5CCNc6ccccc65)c4)c3O)cc2Cl)C1=O [Example 483, 1-(3-chloro-3′-(2-(3,4-dihydroquinoxalin-1(2H)-yl)pyridin-4-yl)-5′-fluoro-2′-hydroxy-[1,1′-biphenyl]-4-yl)-3-methylimidazolidin-2-one]"
1 to 10 nM,0.3 to 30 nM,"Cn1ccn(-c2ccc(-c3cc(F)cc(-c4cncc(N5CC[C@H](N)C5)c4)c3O)cc2Cl)c1=O [Example 484, (S)-1-(3′-(5-(3-aminopyrrolidin-1-yl)pyridin-3-yl)-3-chloro-5′-fluoro-2′-hydroxy-[1,1′-biphenyl]-4-yl)-3-methyl-1H-imidazol-2(3H)-one]"
1 to 10 nM,30 to 300 nM,"Cn1ccn(-c2ccc(-c3cc(F)cc(-c4ccnc(N5CC[C@@H](O)[C@H](N)C5)c4)c3O)cc2Cl)c1=O [Example 487, 1-(3′-(2-((3R,4R)-3-amino-4-hydroxypiperidin-1-yl)pyridin-4-yl)-3-chloro-5′-fluoro-2′-hydroxy-[1,1′-biphenyl]-4-yl)-3-methyl-1H-imidazol-2(3H)-one]"
